Converted amounts (≈) assume the structure as drawn.
Columns and labels:
Assay in all cases: Bacterial susceptibility testing (MIC, broth microdilution)
Type in all cases: cell-based
[1] = tested on: E. coli ATCC25922; conditions: Escherichia coli, ATCC25922, broth microdilution, cation adjusted Mueller-Hinton Broth, 35° C., 18-24 h; read-out: E. coli ATCC25922 MIC
Experimental: (§1) Minimal inhibitory concentrations (MIC) were determined by the broth microdilution method in accordance with the Clinical and Laboratory Standards Institute (CLSI) guidelines. In brief, organism suspensions were adjusted to a final inoculum between 3×10^5 and 7×10^5 colony-forming units (CFU)/mL. Drug dilutions and inocula were made in sterile, cation adjusted Mueller-Hinton Broth (Beckton Dickinson). In wells, an inoculum volume of 100 μL was mixed to 2 μL of DMSO with 2-fold serial dilutions of drug. All inoculated microdilution trays were incubated in ambient air at 35° C. for 18-24 h. Following incubation, the lowest concentration of the drug that prevented visible growth (OD600 nm<0.05) was recorded as the MIC. Performance of the assay was monitored by the use of laboratory quality -control strains and compounds with defined MIC spectrum, in accordance with CLSI guidelines.

[2] = tested on: P. aeruginosa ATCC27853; conditions: Pseudomonas aeruginosa, ATCC27853, broth microdilution, cation adjusted Mueller-Hinton Broth, 35° C., 18-24 h; read-out: P. aeruginosa ATCC27853 MIC
Experimental: as §1

[3] = tested on: K. pneumoniae ATCC13883; conditions: Klebsiella pneumoniae, ATCC13883, broth microdilution, cation adjusted Mueller-Hinton Broth, 35° C., 18-24 h; read-out: K. pneumoniae ATCC13883 MIC
Experimental: as §1

[4] = tested on: P. aeruginosa PAO1; conditions: Pseudomonas aeruginosa, PAO1; broth microdilution, cation adjusted Mueller-Hinton Broth, 35° C., 18-24 h; read-out: P. aeruginosa PAO1 MIC
Experimental: as §1

SMILES	MIC [1]	MIC [2]	MIC [3]	MIC [4]
C[C@H](O)c1nccn1[C@@H](C#Cc1ccc(-c2ccc(OC3COC[C@H]3O)c(F)c2)cc1)CO (single isomer, unassigned) [Compound 8]	2 µg/mL (≈ 4.42 µM)	4 µg/mL (≈ 8.84 µM)	4 µg/mL (≈ 8.84 µM)	2 µg/mL (≈ 4.42 µM)
C[C@H](O)c1nccn1[C@@H](C#Cc1ccc(-c2ccc(O[C@@H]3COC[C@H]3O)c(F)c2)c(F)c1)CO (single isomer, unassigned) [Compound 10]	1 µg/mL (≈ 2.13 µM)	8 µg/mL (≈ 17 µM)	2 µg/mL (≈ 4.25 µM)	4 µg/mL (≈ 8.5 µM)
C[C@H](O)c1nccn1[C@@H](C#Cc1ccc(-c2ccc(O[C@H]3COC[C@@H]3O)c(F)c2)c(F)c1)CO (single isomer, unassigned) [Compound 11]	1 µg/mL (≈ 2.13 µM)	8 µg/mL (≈ 17 µM)	4 µg/mL (≈ 8.5 µM)	4 µg/mL (≈ 8.5 µM)
C[C@H](O)c1nccn1[C@@H](C#Cc1ccc(-c2ccc(O[C@@H]3COC[C@H]3O)c(F)c2F)cc1)CO (single isomer, unassigned) [Compound 13]	2 µg/mL (≈ 4.25 µM)	16 µg/mL (≈ 34 µM)	4 µg/mL (≈ 8.5 µM)	4 µg/mL (≈ 8.5 µM)
C[C@H](O)c1nccn1[C@@H](C#Cc1ccc(-c2ccc(O[C@H]3COC[C@@H]3O)c(F)c2F)cc1)CO (single isomer, unassigned) [Compound 14]	2 µg/mL (≈ 4.25 µM)	8 µg/mL (≈ 17 µM)	4 µg/mL (≈ 8.5 µM)	4 µg/mL (≈ 8.5 µM)
C[C@H](O)c1nccn1[C@@H](C#Cc1ccc(-c2ccc(CO[C@H]3COC[C@@H]3O)c(F)c2)cc1)CO (single isomer, unassigned) [Compound 45]	1 µg/mL (≈ 2.14 µM)	4 µg/mL (≈ 8.57 µM)	2 µg/mL (≈ 4.29 µM)	2 µg/mL (≈ 4.29 µM)
C[C@H](O)c1nccn1[C@@H](C#Cc1ccc(-c2ccc(O[C@@H]3COC[C@H]3O)cc2Cl)cc1)CO (single isomer, unassigned) [Compound 47]	1 µg/mL (≈ 2.13 µM)	4 µg/mL (≈ 8.53 µM)	4 µg/mL (≈ 8.53 µM)	4 µg/mL (≈ 8.53 µM)
C[C@H](O)c1nccn1[C@@H](C#Cc1ccc(-c2ccc(O[C@H]3COC[C@@H]3O)cc2Cl)cc1)CO (single isomer, unassigned) [Compound 48]	1 µg/mL (≈ 2.13 µM)	4 µg/mL (≈ 8.53 µM)	4 µg/mL (≈ 8.53 µM)	2 µg/mL (≈ 4.26 µM)
C[C@H](O)c1nccn1[C@@H](C#Cc1ccc(-c2ccc(CO[C@@H]3COC[C@H]3O)cc2F)cc1)CO (single isomer, unassigned) [Compound 49]	0.5 µg/mL (≈ 1.07 µM)	4 µg/mL (≈ 8.57 µM)	1 µg/mL (≈ 2.14 µM)	2 µg/mL (≈ 4.29 µM)
C[C@H](O)c1nccn1[C@@H](C#Cc1ccc(-c2ccc(CO[C@H]3COC[C@@H]3O)cc2F)cc1)CO (single isomer, unassigned) [Compound 50]	0.5 µg/mL (≈ 1.07 µM)	4 µg/mL (≈ 8.57 µM)	2 µg/mL (≈ 4.29 µM)	2 µg/mL (≈ 4.29 µM)
C[C@H](O)c1nccn1[C@@H](C#Cc1ccc(-c2ccc(O[C@@H]3CCOC[C@H]3O)c(F)c2)cc1)CO (single isomer, unassigned) [Compound 52]	1 µg/mL (≈ 2.14 µM)	8 µg/mL (≈ 17.1 µM)	2 µg/mL (≈ 4.29 µM)	2 µg/mL (≈ 4.29 µM)
C[C@H](O)c1nccn1[C@@H](C#Cc1ccc(-c2ccc(O[C@H]3CCOC[C@@H]3O)c(F)c2)cc1)CO (single isomer, unassigned) [Compound 53]	1 µg/mL (≈ 2.14 µM)	8 µg/mL (≈ 17.1 µM)	4 µg/mL (≈ 8.57 µM)	4 µg/mL (≈ 8.57 µM)
C[C@H](O)c1nccn1[C@@H](C#Cc1ccc(-c2ccc(O[C@@H]3CCOC[C@H]3O)cc2F)cc1)CO (single isomer, unassigned) [Compound 55]	1 µg/mL (≈ 2.14 µM)	8 µg/mL (≈ 17.1 µM)	4 µg/mL (≈ 8.57 µM)	4 µg/mL (≈ 8.57 µM)
C[C@H](O)c1nccn1[C@@H](C#Cc1ccc(-c2ccc(O[C@H]3CCOC[C@@H]3O)cc2F)cc1)CO (single isomer, unassigned) [Compound 56]	1 µg/mL (≈ 2.14 µM)	8 µg/mL (≈ 17.1 µM)	2 µg/mL (≈ 4.29 µM)	2 µg/mL (≈ 4.29 µM)
C[C@H](O)c1nccn1[C@@H](C#Cc1ccc(-c2ccc(NC3COC[C@@H]3O)cc2F)cc1)CO (single isomer, unassigned) [Compound 57]	1 µg/mL (≈ 2.21 µM)	2 µg/mL (≈ 4.43 µM)	4 µg/mL (≈ 8.86 µM)	2 µg/mL (≈ 4.43 µM)
C[C@H](O)c1nccn1[C@@H](C#Cc1ccc(-c2ccc(NC3COC[C@H]3O)cc2F)cc1)CO (single isomer, unassigned) [Compound 58]	1 µg/mL (≈ 2.21 µM)	4 µg/mL (≈ 8.86 µM)	4 µg/mL (≈ 8.86 µM)	4 µg/mL (≈ 8.86 µM)
C[C@H](O)c1nccn1[C@@H](C#Cc1ccc(-c2ccc(N[C@@H]3COC[C@H]3O)c(F)c2)cc1)CO (single isomer, unassigned) [Compound 59]	1 µg/mL (≈ 2.21 µM)	4 µg/mL (≈ 8.86 µM)	4 µg/mL (≈ 8.86 µM)	2 µg/mL (≈ 4.43 µM)
C[C@H](O)c1nccn1[C@@H](C#Cc1ccc(-c2ccc(N[C@H]3COC[C@@H]3O)c(F)c2)cc1)CO (single isomer, unassigned) [Compound 60]	2 µg/mL (≈ 4.43 µM)	4 µg/mL (≈ 8.86 µM)	4 µg/mL (≈ 8.86 µM)	4 µg/mL (≈ 8.86 µM)
C[C@H](O)c1nccn1[C@@H](C#Cc1ccc(-c2ccc(O[C@@H]3COC[C@H]3O)c(Cl)c2)cc1)CO (single isomer, unassigned) [Compound 62]	4 µg/mL (≈ 8.53 µM)	> 32 µg/mL	8 µg/mL (≈ 17.1 µM)	16 µg/mL (≈ 34.1 µM)
C[C@H](O)c1nccn1[C@@H](C#Cc1ccc(-c2ccc(OC3CN(CC#N)C3)cc2F)cc1)CO (single isomer, unassigned) [Compound 63]	0.5 µg/mL (≈ 1.09 µM)	4 µg/mL (≈ 8.69 µM)	2 µg/mL (≈ 4.34 µM)	2 µg/mL (≈ 4.34 µM)
C[C@H](O)c1nccn1[C@@H](C#Cc1ccc(-c2ccc(OC3CN(CC#N)C3)c(F)c2)cc1)CO (single isomer, unassigned) [Compound 64]	1 µg/mL (≈ 2.17 µM)	8 µg/mL (≈ 17.4 µM)	2 µg/mL (≈ 4.34 µM)	8 µg/mL (≈ 17.4 µM)
C[C@H](O)c1nccn1[C@@H](C#Cc1ccc(-c2ccc(NC3CN(CC#N)C3)cc2)cc1)CO (single isomer, unassigned) [Compound 66]	1 µg/mL (≈ 2.26 µM)	4 µg/mL (≈ 9.06 µM)	4 µg/mL (≈ 9.06 µM)	2 µg/mL (≈ 4.53 µM)
C[C@H](O)c1nccn1[C@@H](C#Cc1ccc(-c2ccc(OC3CC4(C3)CN(CC#N)C4)cc2)cc1)CO (single isomer, unassigned) [Compound 67]	0.5 µg/mL (≈ 1.04 µM)	4 µg/mL (≈ 8.29 µM)	4 µg/mL (≈ 8.29 µM)	2 µg/mL (≈ 4.14 µM)
C[C@H](O)c1nccn1[C@@H](C#Cc1ccc(-c2ccc(N[C@@H]3COC[C@H]3O)cc2)cc1)CO (single isomer, unassigned) [Compound 70]	2 µg/mL (≈ 4.61 µM)	1 µg/mL (≈ 2.31 µM)	4 µg/mL (≈ 9.23 µM)	1 µg/mL (≈ 2.31 µM)
C[C@H](O)c1nccn1[C@@H](C#Cc1ccc(-c2ccc(O[C@@H]3C[S+]([O-])C[C@H]3O)cc2)cc1)CO (single isomer, unassigned) [Compound 74]	4 µg/mL (≈ 8.57 µM)	2 µg/mL (≈ 4.29 µM)	4 µg/mL (≈ 8.57 µM)	2 µg/mL (≈ 4.29 µM)
C[C@H](O)c1nccn1[C@@H](C#Cc1ccc(-c2ccc(N3CC4(COC4)C3)cc2)cc1)CO (single isomer, unassigned) [Compound 75]	0.25 µg/mL (≈ 0.582 µM)	4 µg/mL (≈ 9.31 µM)	1 µg/mL (≈ 2.33 µM)	2 µg/mL (≈ 4.66 µM)
CC(=O)N1CC(Nc2ccc(-c3ccc(C#C[C@@H](CO)n4ccnc4[C@H](C)O)cc3)cc2)C1 (single isomer, unassigned) [Compound 76]	2 µg/mL (≈ 4.5 µM)	4 µg/mL (≈ 9 µM)	16 µg/mL (≈ 36 µM)	4 µg/mL (≈ 9 µM)
C[C@H](O)c1nccn1[C@@H](C#Cc1ccc(-c2ccc(N[C@H]3CCC[C@@H]3O)cc2)cc1)CO (single isomer, unassigned) [Compound 77]	0.5 µg/mL (≈ 1.16 µM)	4 µg/mL (≈ 9.27 µM)	2 µg/mL (≈ 4.63 µM)	4 µg/mL (≈ 9.27 µM)

Reference: patent US20260049092A1, “ANTIBACTERIAL COMPOUNDS” (Blacksmith Medicines, Inc., priority 2022, published 2026)
